Experimental findings from ChEMBL document CHEMBL5032528, “Development of novel tetrahydroisoquinoline-hydroxamate conjugates as potent dual SERDs/HDAC inhibitors for the treatment of breast cancer” (Eur J Med Chem, 2021) are described below.

Calls of active or inactive are those of the source. The rule behind the calls is not given here.

One may read the GI50 as the concentration giving 50% growth inhibition. The logD is lipophilicity at a set pH, counting ionised and neutral species. Read a low logD as a more hydrophilic compound. By half-life is commonly meant how long it takes for the measured level to halve. Usually CLint scaled stands for a measure of how fast metabolising enzymes remove a compound, apart from limits set by blood flow. Read a low CLint scaled as greater metabolic stability. The term IC50 denotes the midpoint of a concentration-inhibition curve. The inhibition is the change of the read-out against control, counted positive when it falls.

Series [1] deals with MCF7. Put plainly: Antiproliferative activity against human MCF7 cells assessed as reduction in cell growth measured after 6 days by WST8 assay. The format is functional. As to conditions: time 6 day. In general terms: Formazan colour is commonly taken as a measure of viable cells.
In series [2] the test system is Ishikawa. Put plainly: Induction of human ishikawa cells proliferation at 300 nM measured after 48 hrs by CCK8 assay. The format is functional.
Series [3] can be described thus: Lipophilicity, logD of compound in n-octanol and phosphate buffer at pH 7.4 after 1.5 hrs by HPLC analysis. The format is physicochemical.
The nature of series [4]: Stability in human liver microsomes assessed as half life. It counts as ADME, Microsome. (Liver microsomes are a subcellular fraction often used to study metabolism.)
A short description of another series: in vitro. As to conditions: human, liver microsomes.
The target in series [5] is T1, Protein deacetylase HDAC6 (Homo sapiens, UniProt Q9UBN7).
T1 sequence (Q9UBN7 whole entry): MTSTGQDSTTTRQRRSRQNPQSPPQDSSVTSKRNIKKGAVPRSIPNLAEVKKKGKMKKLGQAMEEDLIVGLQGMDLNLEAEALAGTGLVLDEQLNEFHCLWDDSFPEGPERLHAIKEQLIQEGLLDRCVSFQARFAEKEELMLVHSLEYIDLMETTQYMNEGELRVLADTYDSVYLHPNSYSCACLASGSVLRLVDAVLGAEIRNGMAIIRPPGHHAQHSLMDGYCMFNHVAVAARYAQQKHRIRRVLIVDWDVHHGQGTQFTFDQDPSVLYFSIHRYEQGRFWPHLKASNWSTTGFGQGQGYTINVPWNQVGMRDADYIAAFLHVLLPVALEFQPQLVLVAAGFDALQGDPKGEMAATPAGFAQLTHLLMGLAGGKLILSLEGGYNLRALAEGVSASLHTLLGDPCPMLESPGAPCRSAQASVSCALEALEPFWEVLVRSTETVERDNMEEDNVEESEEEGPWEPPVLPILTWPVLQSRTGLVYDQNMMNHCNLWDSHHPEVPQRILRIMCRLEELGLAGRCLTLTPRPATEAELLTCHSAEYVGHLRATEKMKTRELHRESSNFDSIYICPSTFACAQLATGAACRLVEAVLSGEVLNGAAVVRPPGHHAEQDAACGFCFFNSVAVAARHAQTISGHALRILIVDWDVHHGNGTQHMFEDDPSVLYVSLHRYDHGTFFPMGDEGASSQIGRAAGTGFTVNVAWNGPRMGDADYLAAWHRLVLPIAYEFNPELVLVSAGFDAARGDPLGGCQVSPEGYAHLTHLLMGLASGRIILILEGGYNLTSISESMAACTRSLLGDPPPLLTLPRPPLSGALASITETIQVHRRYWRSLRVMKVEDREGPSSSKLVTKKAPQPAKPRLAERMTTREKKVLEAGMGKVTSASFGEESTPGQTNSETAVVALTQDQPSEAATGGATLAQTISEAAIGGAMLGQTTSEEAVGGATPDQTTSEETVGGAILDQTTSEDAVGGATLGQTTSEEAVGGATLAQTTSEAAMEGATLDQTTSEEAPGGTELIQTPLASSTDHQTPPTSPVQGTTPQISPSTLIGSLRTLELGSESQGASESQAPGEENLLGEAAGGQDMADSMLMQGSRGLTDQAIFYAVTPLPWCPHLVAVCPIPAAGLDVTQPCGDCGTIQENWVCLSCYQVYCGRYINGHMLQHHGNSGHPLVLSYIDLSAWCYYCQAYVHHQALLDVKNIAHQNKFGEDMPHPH
Put plainly: Inhibition of HDAC6 (unknown origin) using Ac-peptide as substrate preincubated for 15 mins followed by substrate addition and measured after 60 mins by fluorescence assay.

The target of a further series is T2, Estrogen receptor (Homo sapiens, UniProt P03372).
T2 sequence (P03372 whole entry): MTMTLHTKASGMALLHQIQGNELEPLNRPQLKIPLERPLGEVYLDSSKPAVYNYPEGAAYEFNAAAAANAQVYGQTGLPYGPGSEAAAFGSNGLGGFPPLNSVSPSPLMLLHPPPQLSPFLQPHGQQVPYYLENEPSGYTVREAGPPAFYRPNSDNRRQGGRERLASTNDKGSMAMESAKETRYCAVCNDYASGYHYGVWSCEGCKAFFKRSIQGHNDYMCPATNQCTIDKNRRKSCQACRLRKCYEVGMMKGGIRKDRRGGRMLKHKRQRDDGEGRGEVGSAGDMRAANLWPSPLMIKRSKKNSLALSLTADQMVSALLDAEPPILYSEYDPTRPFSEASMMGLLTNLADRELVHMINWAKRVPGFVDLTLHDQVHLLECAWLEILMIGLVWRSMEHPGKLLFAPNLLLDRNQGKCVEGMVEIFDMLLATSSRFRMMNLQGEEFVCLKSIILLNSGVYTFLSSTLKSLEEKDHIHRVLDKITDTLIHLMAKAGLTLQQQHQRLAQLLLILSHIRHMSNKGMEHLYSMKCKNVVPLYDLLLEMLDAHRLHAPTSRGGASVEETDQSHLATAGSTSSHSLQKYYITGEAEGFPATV
As to the kind of experiment: Displacement of fluorescent estradiol from full-length ERalpha (unknown origin) measured after 2 hrs by fluorescence polarization assay. On the technique in general: In fluorescence polarisation assays a small probe gives low polarisation when free and higher when bound to something large.

In series [6] the target is T3, Estrogen receptor (Homo sapiens) (UniProt P03372).
T3 sequence (whole entry): T2 sequence (P03372 whole entry)
Put plainly: Induction of ERalpha degradation in human MCF7 cells at 0.1 uM measured after 24 hrs by Western blot analysis. The format is cell-based.

Another series addresses Histone deacetylase 1 (Homo sapiens, UniProt Q13547). Put plainly: Inhibition of HDAC1 (unknown origin).
A further series concerns the target Histone deacetylase 4 (Homo sapiens, UniProt P56524). As to the kind of experiment: Inhibition of HDAC4 (unknown origin).
Series [7] has as its target T3, Estrogen receptor (Homo sapiens). Put plainly: Inhibition of ERalpha signaling in human MCF7 cells measured after 24 hrs by Western blot assay. As to conditions: dose 10-10000 nM. It counts as cell-based.
The subject of series [8] is MCF7. As to the kind of experiment: Antitumor activity against human MCF7 cells xenografted in BALB/c nude mouse assessed as TGI at 5 mg/kg/day, iv administered for 21 days. The note with it: 504 h, time 21 day, read-out: TGI. The format is functional.
Series [9] addresses T4, Protein deacetylase HDAC6 (Homo sapiens) (UniProt Q9UBN7).
T4 sequence (whole entry): T1 sequence (Q9UBN7 whole entry)
Put plainly: Inhibition of HDAC6 in human MCF7 cells assessed as increase in intracellular acetylation level of alpha-tubulin after 24 hrs by Western blot analysis. The format is cell-based. The note with it: dose 10-1000 nM.

Series [10] addresses T3, Estrogen receptor (Homo sapiens). Put plainly: Antagonist activity at ERalpha in human MCF7 cells assessed as reduction in E2-induced PGR gene expression incubated for 24 hrs by qRT-PCR analysis. The format is cell-based. As to conditions: filed as antagonist, dose 3-300 nM.
For series [11] the target is unchanged. Put plainly: Antagonist activity at ERalpha in human MCF7 cells assessed as reduction in E2-induced GREB1 gene expression incubated for 24 hrs by qRT-PCR analysis. It counts as cell-based. The note with it: filed as antagonist, dose 3-300 nM.
Series [12] deals with MCF7. Put plainly: Induction of apoptosis in human MCF7 cells at 0.1 uM incubated for 24 hrs by PI staining based flow cytometry analysis. The format is functional, cell-based.
Series [13] concerns the target T3, Estrogen receptor (Homo sapiens). As to the kind of experiment: Antagonist activity at ERalpha activity in human ishikawa cells assessed as reduction in PGR mRNA expression at 10 to 300 nM for 24 hrs. The format is cell-based. As to conditions: filed as antagonist, dose 10-300 nM.
Series [14] has as its system Ishikawa. As to the kind of experiment: Induction of human ishikawa cells proliferation at 39 to 10000 nM measured after 48 hrs by CCK8 assay. The note with it: dose 39-10000 nM. The format is functional.
The subject of series [15] is MDA-MB-231. Put plainly: Antiproliferative activity against human MDA-MB-231 cells assessed as reduction in cell growth measured after 2 days by CCK8 assay. As to conditions: MDA-MB-231, 48 h. The format is functional, cell-based.
The target of series [16] is Histone deacetylase (Homo sapiens) (UniProt Q13547+O15379+Q9UBN7+Q92769+Q9UQL6+Q8WUI4+Q9BY41+Q96DB2+P56524+Q9UKV0+Q969S8). Put plainly: Inhibition of HDAC in human MDA-MB-231 cells assessed as increase in alpha tubulin acetylation after 24 hrs by immunofluorescence assay. As to conditions: dose 5.0 µM. The format is cell-based.
Series [17] relates to MDA-MB-231. Put plainly: Antimigratory activity against human MDA-MB-231 cells measured after 48 hrs by scratch wound-healing assay. The format is functional, cell-based.
Series [18] in a line: Stability in human plasma assessed as half life. It counts as ADME, cell-free.
Series [19] is described as follows: Toxicity in Balb/c mouse xenografted with human MCF7 cells assessed as body weight loss at 5 mg/kg/day, iv administered for 21 days. It counts as organism-based. The note with it: in vivo, 504 h, time 21 day.
A further series concerns Mus musculus. Put plainly: In vivo induction of ERalpha degradation in human […] cells xenografted in BALB/c mouse assessed as decrease in ERalpha level at 5 mg/kg/day, iv administered for 21 days by Western blot analysis. It counts as functional, organism-based. As to conditions: time 21.0 day.
In series [20] the target is T3, Estrogen receptor (Homo sapiens). Put plainly: Inhibition of ERalpha signaling in human MCF7 cells at 1 uM measured after 24 hrs by Western blot assay. The format is cell-based.
The target is the same in series [21]. As to the kind of experiment: Inhibition of ERalpha signaling in human MCF7 cells at 10 uM measured after 24 hrs by Western blot assay. It counts as cell-based.
Series [22] can be described thus: Toxicity in Balb/c mouse xenografted with human MCF7 cells assessed as change in organ morphology at 5 mg/kg/day, iv administered for 21 days by H and E staining based analysis. The format is organism-based. The note with it: in vivo, 504 h, time 21 day.

Sequence of Histone deacetylase 1 (Q13547 whole entry): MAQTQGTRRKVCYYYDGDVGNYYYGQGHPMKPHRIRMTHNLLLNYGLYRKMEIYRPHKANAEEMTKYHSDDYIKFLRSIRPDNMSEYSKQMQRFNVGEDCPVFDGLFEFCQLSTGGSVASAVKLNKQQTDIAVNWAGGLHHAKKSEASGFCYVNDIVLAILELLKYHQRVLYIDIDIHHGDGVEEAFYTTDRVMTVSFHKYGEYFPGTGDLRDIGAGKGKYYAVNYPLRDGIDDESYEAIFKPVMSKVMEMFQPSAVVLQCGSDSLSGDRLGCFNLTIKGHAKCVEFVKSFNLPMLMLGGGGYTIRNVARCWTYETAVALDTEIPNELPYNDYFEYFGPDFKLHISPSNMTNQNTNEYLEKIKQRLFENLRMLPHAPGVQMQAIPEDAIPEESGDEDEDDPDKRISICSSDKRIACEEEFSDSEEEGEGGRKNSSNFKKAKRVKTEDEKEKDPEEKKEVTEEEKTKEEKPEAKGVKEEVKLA
Sequence of Histone deacetylase 4 (P56524 whole entry): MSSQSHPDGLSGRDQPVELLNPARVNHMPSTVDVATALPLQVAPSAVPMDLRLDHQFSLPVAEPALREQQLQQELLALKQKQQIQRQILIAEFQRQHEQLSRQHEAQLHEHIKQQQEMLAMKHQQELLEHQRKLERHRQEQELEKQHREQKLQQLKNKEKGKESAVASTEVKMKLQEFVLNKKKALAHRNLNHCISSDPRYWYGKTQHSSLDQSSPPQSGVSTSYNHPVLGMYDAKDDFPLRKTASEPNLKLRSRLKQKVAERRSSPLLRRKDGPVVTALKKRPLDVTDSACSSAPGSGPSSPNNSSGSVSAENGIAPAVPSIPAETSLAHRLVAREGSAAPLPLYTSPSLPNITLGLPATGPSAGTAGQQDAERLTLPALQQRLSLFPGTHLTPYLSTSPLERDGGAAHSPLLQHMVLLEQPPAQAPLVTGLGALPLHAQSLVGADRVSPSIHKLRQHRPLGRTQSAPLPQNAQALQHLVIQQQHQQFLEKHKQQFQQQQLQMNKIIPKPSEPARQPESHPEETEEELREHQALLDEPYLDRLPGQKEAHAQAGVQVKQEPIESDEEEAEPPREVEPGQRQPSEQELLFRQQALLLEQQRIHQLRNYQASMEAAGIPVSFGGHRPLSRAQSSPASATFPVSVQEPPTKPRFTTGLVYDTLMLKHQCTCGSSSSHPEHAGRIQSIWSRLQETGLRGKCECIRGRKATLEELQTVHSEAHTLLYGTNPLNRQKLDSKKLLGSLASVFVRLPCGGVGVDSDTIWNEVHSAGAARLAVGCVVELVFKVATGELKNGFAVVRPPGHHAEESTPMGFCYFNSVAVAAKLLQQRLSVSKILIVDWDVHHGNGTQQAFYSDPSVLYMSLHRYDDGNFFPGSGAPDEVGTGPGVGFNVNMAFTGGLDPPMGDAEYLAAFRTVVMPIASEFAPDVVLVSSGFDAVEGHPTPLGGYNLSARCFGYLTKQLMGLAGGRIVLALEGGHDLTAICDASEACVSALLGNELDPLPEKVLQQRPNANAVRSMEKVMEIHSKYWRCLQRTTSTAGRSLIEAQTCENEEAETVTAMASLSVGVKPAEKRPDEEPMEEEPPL

Take `C[C@]12CC[C@@H]3c4ccc(O)cc4C[C@@H](CCCCCCCCC[S+]([O-])CCCC(F)(F)C(F)(F)F)[C@H]3[C@@H]1CC[C@@H]2O` (stereo partly specified) [FULVESTRANT]: the GI50 in the series with MCF7 [1] (Homo sapiens, MCF7, 144 h) came to 540 nM. The result in the series on Ishikawa [2] was Active. The logD at 1.5 h in series [3] is 6.8. Also, in [4], the half-life was 1.56 min. The CLint scaled in “in vitro” was determined as 1150 mL/min/kg.

Turning to `CC(C)(F)CN1CCc2cc(O)ccc2C1c1ccc(OC2CN(CC(=O)NO)C2)cc1` (stereo unspecified), the IC50 turned out to be 175 nM in series [5] and 78.2 nM at Estrogen receptor. Moreover, the GI50 with MCF7 [1] (Homo sapiens, MCF7, 144 h) was found to be 1820 nM. This compound showed an Activity in series [6] of 32%.

Consider `CC(C)(F)CN1CCc2cc(O)ccc2C1c1ccc(OCCCCCCC(=O)NO)cc1` (stereo unspecified), for which the 50% inhibitory concentration (IC50) in [5] was 62.8 nM; on Histone deacetylase 1 it was 582 nM; on Histone deacetylase 4, over 1000 nM; at Estrogen receptor it was 90.8 nM; with MDA-MB-231 [15], 380 nM. For the same compound, the inhibition result was “Dose-Dependent Effect” in series [7], “Dose-Dependent Effect” in [9], “Dose-Dependent Effect” in [16] and 100% in series [21]. Besides, the concentration for 50% growth inhibition (GI50) with MCF7 [1] (Homo sapiens, MCF7, 144 h) was 170 nM. Also, the Activity in [6] is 57%; in [10], “Dose-Dependent Effect”; in series [11], “Dose-Dependent Effect”; in series [19] it was “Non-Toxic”; in [22], “Non-Toxic”. Moreover, the inhibition in vivo at 5 mg/kg/day in the series on MCF7 [8] was found to be 58%. For the same compound, the result (in the series with MCF7 [12]; in [13]; in the series on MDA-MB-231 [17]) was Active. In the series with Ishikawa [14], the result was inactive. In series [3], this compound showed a log distribution coefficient (logD) at 1.5 h of 2.49. For the same compound, the half-life stood at 18.8 min in series [4] and 458 min in series [18]. The inhibition entry (in the series with Mus musculus; in [20]) was “Active” throughout. In addition, the intrinsic metabolic clearance (CLint scaled) in the series “in vitro” is 132 mL/min/kg.

On Estrogen receptor, `CC(C)(F)CN1CCc2cc(O)ccc2C1c1ccc(OCCCOc2ccc(C(=O)NO)cc2)cc1` (stereo unspecified) returned an IC50 of 132 nM. The GI50 with MCF7 [1] (Homo sapiens, MCF7, 144 h) turned out to be 460 nM. Besides, the outcome in [6] was inactive.

With `CC(C)(F)CN1CCc2cc(O)ccc2C1c1ccc(OCCCCCC(=O)NO)cc1` (stereo unspecified), the IC50 turned out to be 65.9 nM in series [5] and 102 nM at Estrogen receptor. Also, the GI50 in the series with MCF7 [1] (Homo sapiens, MCF7, 144 h) stood at 950 nM. In series [6], this compound displayed an Activity of 31%.

Regarding `O=C(CCCCCCC(=O)Nc1ccccc1)NO` [VORINOSTAT], the GI50 in the series with MCF7 [1] amounted to 1250 nM.

The compound `CC(C)(F)CN1CCc2cc(O)ccc2C1c1ccc(C(=O)NO)cc1` (stereo unspecified) gave an IC50 at Estrogen receptor of 96.3 nM. Besides, in the series with MCF7 [1] (Homo sapiens, MCF7, 144 h), the concentration for 50% growth inhibition (GI50) is 230 nM. The compound also registered an Activity in series [6] of 5%.
